Measured values taken from patent US20040001818A1, “Methods of inhibiting angiogenesis using NADPH oxidase inhibitors” (priority 2000, published 2004).
Starred links: 1 amine or outer side, 2 acyl side, 3 side chain; linkers in the order of their positions; H or OH if unused. Positions of bridges follow the written chain, without caps; N, C: chain ends. Non-standard residues stand in square brackets, D forms with d. Residues, ends and D or L forms follow the SMILES beside them. Chains are numbered I, II in the order given. Actinocin(9to1) = Cc1c2oc3c(C)ccc(C(=O)[*:1])c3nc-2c(C(=O)[*:2])c(N)c1=O; NMeV = CN[C@H](C(=O)O)C(C)C; Sar = CNCC(=O)O

Assays:
[1] = tested on: MnSOD mRNA; test: Northern blot of MnSOD mRNA in HCAECs; format: cell-based, human; settings: for VEGF-mediated induction of MnSOD: serum-starved HCAECs, VEGF 50 ng/ml, four hours, DPI 5, 25, 100 μM, apocynin 0.3, 2, 5 mM, allopurinol 0.1, 0.5 mM; for VEGF stimulation of MnSOD: HCAEC pre-incubated with 1 μM GF-109203X, 50 μM PD98059 or 20 μM SB 203580
Method: Cell culture. Human coronary artery endothelial cells (HCAECs) (Clonetics Corporation, San Diego, Calif., USA) and human pulmonary artery endothelial cells (HPAECs) were grown in Endothelial Growth Medium-2-MV (EGM-2-MV) BulletKit (Clonetics Corporation, San Diego, Calif., USA). At 80-90% confluence, the cells were serum-starved in DMEM containing 0.5% FBS for 24 hours and subsequently treated with VEGF-supplemented medium for the times indicated. Human recombinant VEGF was purchased from PeproTech, Inc. (Rocky Hill, N.J., USA). […] In other studies, the serum-starved cells were pretreated with the MEK inhibitor PD98059 at a final concentration of 50 μM or a specific PKC inhibitor bisindolylmaleimide I (BIM; CalBiochem, San Diego, Calif., USA) at a final concentration of 5 μM for 30 minutes prior to addition of growth factors. An equal amount of DMSO was added to the control plates. Northern blot analyses. Ten micrograms total RNA was loaded on a 0.7% formaldehyde-containing agarose gel. The RNA was transferred to nylon membrane, covalently cross-linked with UV radiation, prehybridized for 6 hours, and hybridized for 18 hours at 42° C. with a [^32P]dCTP-labeled cDNA probe containing MnSOD or eNOS cDNA sequence. The membranes were subsequently stripped and probed with a radiolabeled 18S-ribosome probe. For actinomycin D experiments, HCAEC cells were pretreated with 10 μg/ml actinomycin D (Sigma Chemical Company, St. Louis, Mo., USA) for 30 minutes before addition of VEGF and were harvested for total RNA one hour later.
To determine whether VEGF induced expression of MnSOD in primary endothelial cell cultures, HCAECs and HPAECs were serum starved for 24 hours, treated with 40 ng/ml VEGF for 0, 0.5, 1, 2, 4, 12 and 24 hours, and then harvested for total RNA. Northern blots were performed and probed for human MnSOD. […] The membranes were then stripped and reprobed for eNOS.
To determine whether the response of MnSOD to VEGF was mediated by ROS, HCAECs were serum starved and then treated with VEGF in the absence or presence of inhibitors of NADPH oxidase (DPI, apocynin), xanthine oxidase (allopurinol) and nitric oxide synthase (L-NAME).

[2] = tested on: human coronary artery endothelial cells (HCAECs); test: [3H]-thymidine incorporation in HCAECs; format: cell-based; settings: for thymidine incorporation: HCAECs grown in 10% FBS
Method: To determine whether the effect of serum or VEGF on endothelial cell proliferation might also be dependent upon ambient levels of ROS, HCAECs were grown to confluence, split into 24 wells, serum starved for eight hours and then incubated in the absence or presence of VEGF for 16 or 24 hours. All wells received 1 μCi of [^3H]-thymidine at the time of treatment. After 16 or 24 hours, medium was removed, and the wells were washed 3 times with PBS. Radioactivity was extracted and thymidine incorporation measured using a scintillation counter.

[3] = tested on: mouse embryonic fibroblasts; test: [3H]-thymidine incorporation in primary murine embryonic fibroblasts; format: cell-based; settings: 10% FBS, 16 hours
Method: To determine whether the effect of NADPH oxidase inhibition was specific to endothelial cells, the effect of the various inhibitors on thymidine incorporation in primary murine embryonic fibroblasts was tested. The results are shown in FIG. 13, which is a histogram showing thymidine incorporation (y-axis) in mouse embryonic fibroblasts that have been grown in 0.5% FBS or 10% FBS in the absence (10% FBS) or presence of inhibitors (Apo=apocynin; allo=allopurinol; L-NAME) for 16 hours.

[4] = tested on: human coronary artery endothelial cells (HCAECs); test: VEGF-induced chemotaxis of HCAECs, Boyden chamber assay; format: cell-based; settings: for inhibition of migration, dose dependence: VEGF 50 ng/ml, DPI 0.5, 1.0, 5.0, 10 μM, AEBSF 5, 50, 100, 250 μM
Method: The capacity of NADPH oxidase inhibitors to block migration of human coronary artery endothelial cells was tested. In these studies, VEGF-induced chemotaxis was tested with the Boyden chamber assay. Human coronary artery endothelial cells were serum starved in 0.5% FBS overnight. 25,000 cells were seeded into the upper chamber in the absence or presence of DPI, while media containing 0.5% FBS and 40 ng/ml was placed into the lower chamber. The chamber was incubated for 4 hours at 37° C., at which time the polycarbonate filters were harvested and counted for migrating cells. The results are shown in FIG. 14, which is a histogram showing the migration in terms of cell count (y-axis) of human coronary artery endothelial cells in a Boyden chamber. The cells were serum starved in 0.5% FBS and treated with either VEGF, DPI or VEGF+DPI (x-axis).
The effect of AEBSF on VEGF-induced migration was also studied. HCAECs were treated as above and treated by either VEGF, VEGF+100 μM allopurinol, or VEGF+250 μM AEBSF. The results are shown in FIG. 15, which is a histogram showing migration in terms of cell count (y-axis) when treated (x-axis). The NADPH oxidase inhibitor AEBSF abrograted the VEGF-mediated chemotaxis of HCAECs.
These are histograms showing VEGF-mediated chemotaxis in control HCAECs (“C”), or HCAECs treated with 50 ng/ml VEGF in the absence or presence of increasing doses of DPI (0.5, 1.0, 5.0 or 10 μM; FIG. 16A) or AEBSF (5, 50, 100 or 250 μM; FIG. 16B).

[5] = tested on: ROS; test: ROS generation: DCF oxidation by flow cytometry in DCFDA-labeled HCAECs; format: cell-based, human; settings: relative to basal rate of control cells
Method: Western blot analyses. Whole cell protein extracts were prepared from serum-starved HCAECs and HPAECs one hour following addition of growth factor-supplemented or mock-treated media. Cells were washed twice with cold phosphate-buffered saline, harvested with a cell scraper, and lysed in ice-cold lysis buffer containing 20 mM HEPES, pH 7.5, 150 mM NaCl, 1% NP-40, 0.1% SDS, 1 mM EDTA, 1 mM DTT, 0.5 mM phenylmethylsulfonyl fluoride (PMSF), and the protease inhibitor cocktail (Boehringer Mannheim, Mannheim, Germany) for one hour. The resulting lysates were centrifuged at 10,000× g for 20 minutes and the supernatants were saved as whole cell protein extracts. Forty micrograms of protein were separated by 10% SDS-PAGE and electrotransferred to nitrocellulose membranes. Membranes were blocked with 5% nonfat dry milk in Tris-buffered saline with 0.1% Tween 20 for one hour at room temperature. The blot was incubated with primary rabbit polyclonal anti-MnSOD IgG (1:1000 dilution) (Santa Cruz Biotechnology Inc., Santa Cruz, Calif., USA) overnight at 4° C., followed by secondary antibody goat-anti-rabbit horseradish peroxidase conjugate (1:1000 dilution) (Pierce, Rockford, Ill., USA). The blot was washed extensively between each incubation step. Peroxidase activity was visualized with an enhanced chemiluminescense substrate system (Amersham, Arlington Heights, Ill., USA). Membranes were stripped and probed for eNOS and β-actin. Flow cytometry. Endothelial cells were labeled with DCFDA and oxidation of DCF was measured by flow cytometry.
To test whether VEGF increases ROS production in endothelial cells, HCAECs were labeled with […] DCFDA and oxidation of DCF was measured by flow cytometry. […] PMS is known to induce free oxygen radicals.

[6] = serum starved (0.5% FBS) and VEGF-treated HCAECs, 16 or 24 hours

CN(C)CCCn1cc(C2=C(c3c[nH]c4ccccc34)C(=O)NC2=O)c2ccccc21 [BIM, bisindolylmaleimide I]
VEGF-mediated induction of MnSOD mRNA ([1]; preincubation, BIM 0.1, 1, 5 μM, PD98059 5, 20, 100 μM): inhibited

COc1cc(C(C)=O)ccc1O [apocynin]
serum-induced thymidine incorporation ([2]; HCAECs, 5.0% FBS, apocynin 300 μM, 500 μM, 1 mM, 2 mM, 3 mM): dose-dependent inhibition | thymidine incorporation [3]: failed to reduce incorporation below baseline | VEGF-mediated induction of MnSOD [1]: inhibited

Cc1c2oc3c(C)ccc(C(=O)N[C@@H]4C(=O)N[C@H](C(C)C)C(=O)N5CCC[C@H]5C(=O)N(C)CC(=O)N(C)[C@@H](C(C)C)C(=O)O[C@@H]4C)c3nc-2c(C(=O)N[C@@H]2C(=O)N[C@H](C(C)C)C(=O)N3CCC[C@H]3C(=O)N(C)CC(=O)N(C)[C@@H](C(C)C)C(=O)O[C@@H]2C)c(N)c1=O [Actinomycin D, actinomycin D] (I: T[dV]P[Sar][NMeV] / II: T[dV]P[Sar][NMeV]; ester I:1-I:C, II:1-II:C; linker I:N-II:N via Actinocin(9to1))
VEGF-mediated induction of MnSOD mRNA ([1]; HCAEC, 10 μg/ml actinomycin D for 30 minutes before 60 minute incubation with VEGF): completely abolished

C[S+]([O-])c1ccc(-c2nc(-c3ccncc3)c(-c3ccc(F)cc3)[nH]2)cc1 (stereo not shown) [SB 203580]
VEGF stimulation of MnSOD [1]: not

NCCc1ccc(S(=O)(=O)F)cc1 [AEBSF, 4-(2-aminoethyl)-benzenesulfonyl fluoride]
thymidine uptake ([2]; HCAECs, 5% FBS, AEBSF 5, 50, 100, 500 μM): inhibited | VEGF-mediated induction of MnSOD mRNA ([1]; pretreatment with the inhibitor, concentration not given): inhibited | inhibition of migration, dose dependence [4]: dose-dependent | VEGF-mediated chemotaxis ([4]; VEGF + 250 μM AEBSF): abrograted

COS(=O)(=O)[O-].C[n+]1c2ccccc2nc2ccccc21 [PMS]
DCF oxidation (ROS production) [5]: increased ROS production

CN(C)CCCn1cc(C2=C(c3c[nH]c4ccccc34)C(=O)NC2=O)c2ccccc21 [GF-109203X]
VEGF stimulation of MnSOD [1]: significantly reduced

O=C1c2ccccc2Cc2ccccc21 [anthrone]
thymidine uptake [2, 6]: profound inhibition

COc1cccc(-c2cc(=O)c3ccccc3o2)c1N [PD98059]
VEGF stimulation of MnSOD [1]: not

CCCCCCCCCCCCCC(=O)O[C@@H]1[C@@H](C)[C@@]2(O)[C@@H](C=C(CO)C[C@]3(O)C(=O)C(C)=C[C@@H]23)[C@@H]2C(C)(C)[C@]12OC(C)=O [PMA]
DCF oxidation (ROS production) [5]: significantly increased

Oc1ncnc2[nH]ncc12 [allopurinol]
thymidine incorporation [2]: no effect | DCF oxidation (ROS production) [5]: no effect

COC(=O)[C@@H](N)CCCNC(=N)N[N+](=O)[O-] [L-NAME]
thymidine incorporation [2]: no effect | DCF oxidation (ROS production) [5]: no effect

c1ccc2c(c1)[I+]c1ccccc1-2 [DPI, diphenyleneiodonium]
DPI concentration inhibiting serum-induced thymidine incorporation ([2]; HCAECs in 5.0% FBS, doses 1, 5, 25, 40, 80 μM): ≤ 1 µM | thymidine uptake [2, 6]: profound inhibition | DCF oxidation (ROS production) [5]: significantly inhibited | VEGF-mediated induction of MnSOD [1]: inhibited | migration (cell count) ([4]; 25 μM DPI, VEGF in lower chamber, 4 hours): profound inhibition | inhibition of migration, dose dependence [4]: dose-dependent
